Like-named read-outs stand apart in the source and are kept apart here.
What was measured:
hDGKalpha(1-735)-N-His = hDGKalpha(1-735)-N-His (Homo sapiens (Human), UniProt P23743); experiment: DGKalpha ADP Glo assay (in vitro DGK inhibition); type: biochemical; settings: DLG 125 uM, ATP 25 μM, DGK α 4 nM, 1 hour reaction
Method: (§1) DGK α and ζ kinase use ATP to phosphorylate the substrate 1,2-dilauroyl-sn-glycerol (DLG, incorporated in the liposomes). ATP is converted to ADP as a result of this enzymatic reaction. After the kinase reaction, an ATP-depletion reagent is added to terminate the kinase reaction and deplete any remaining ATP, leaving only ADP. Second, a detection reagent is added to simultaneously convert ADP to ATP and allow the newly synthesized ATP to be converted to light using a coupled luciferase/luciferin reaction.
(§2) Purification of both enzymes was performed as previously described by Takahashi et al., PeerJ, 2018 (Takahashi, D.; Sakane, F. Expression and purification of human diacylglycerol kinase alpha from baculovirus-infected insect cells for structural studies. PeerJ 2018, 6, No. e5449).
(§3) A concentrated liposome solution was prepared in assay buffer without DTT and BSA: 2 mM of DLG in 21 mM of total liposome (2 mM DLG/8 mM PS/11 mM PC). […] The reactions were started by addition of DGK α and ζ kinases at 4 nM and 2 nM final concentrations, respectively. After 1 hour reaction, the amount of ADP formed was detected with the ADP-Glo kinase assay (Promega) according to the manufacturer instructions. Compounds were added in 11-points dose response, starting at […], 1:3 dilutions, with a final DMSO concentration of 2%. The multidrop combi was used as a liquid handler and luminescence was read with 0.5 s by the envision reader (PE).

hDGKzeta(1-928)-N-His = hDGKzeta(1-928)-N-His (Homo sapiens (Human), UniProt Q13574); experiment: DGKzeta ADP Glo assay (in vitro DGK inhibition); type: biochemical; settings: DLG 125 uM, ATP 50 μM, DGK ζ 2 nM, 1 hour reaction
Method: as §1, §2, §3

primary human T-cells [1] = experiment: Proliferation assay after 5 days (CellTiter-Glo, CD3 stimulation; PBS counter screen); type: cell-based; settings: CD3 stimulation; for Emax proliferation (% activation) / Emax: 5 days, normalized to reference compound A1 as stimulator control = 100%, DMSO neutral control; for EC50: primary human T-cells, CellTiter-Glo after 5 days, EC50 of fitted sigmoidal curve, read-out: Tcell Proliferation CD3 EC50; for Emax: read-out: Emax proliferation (% activation)
Summary of the method: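 Proliferation is measured 5 days post-treatment as ATP-dependent luminescence. Flags mark compounds that activated unstimulated cells or harmed viability.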

MV-3 cells = experiment: T-cell - TCB - MV3 killing assay (MCSP-TCB, RFP object count by Incucyte); type: cell-based, human; settings: 5 d; for EC50: primary human T-cells + MCSP-TCB, MV-3 RFP cells, read-out: MSCP TCB killing MV-3 cells 5 d EC50
primary human T-cells [2] = test system: primary human T-cells

Sequence of hDGKzeta(1-928)-N-His (Q13574 whole entry): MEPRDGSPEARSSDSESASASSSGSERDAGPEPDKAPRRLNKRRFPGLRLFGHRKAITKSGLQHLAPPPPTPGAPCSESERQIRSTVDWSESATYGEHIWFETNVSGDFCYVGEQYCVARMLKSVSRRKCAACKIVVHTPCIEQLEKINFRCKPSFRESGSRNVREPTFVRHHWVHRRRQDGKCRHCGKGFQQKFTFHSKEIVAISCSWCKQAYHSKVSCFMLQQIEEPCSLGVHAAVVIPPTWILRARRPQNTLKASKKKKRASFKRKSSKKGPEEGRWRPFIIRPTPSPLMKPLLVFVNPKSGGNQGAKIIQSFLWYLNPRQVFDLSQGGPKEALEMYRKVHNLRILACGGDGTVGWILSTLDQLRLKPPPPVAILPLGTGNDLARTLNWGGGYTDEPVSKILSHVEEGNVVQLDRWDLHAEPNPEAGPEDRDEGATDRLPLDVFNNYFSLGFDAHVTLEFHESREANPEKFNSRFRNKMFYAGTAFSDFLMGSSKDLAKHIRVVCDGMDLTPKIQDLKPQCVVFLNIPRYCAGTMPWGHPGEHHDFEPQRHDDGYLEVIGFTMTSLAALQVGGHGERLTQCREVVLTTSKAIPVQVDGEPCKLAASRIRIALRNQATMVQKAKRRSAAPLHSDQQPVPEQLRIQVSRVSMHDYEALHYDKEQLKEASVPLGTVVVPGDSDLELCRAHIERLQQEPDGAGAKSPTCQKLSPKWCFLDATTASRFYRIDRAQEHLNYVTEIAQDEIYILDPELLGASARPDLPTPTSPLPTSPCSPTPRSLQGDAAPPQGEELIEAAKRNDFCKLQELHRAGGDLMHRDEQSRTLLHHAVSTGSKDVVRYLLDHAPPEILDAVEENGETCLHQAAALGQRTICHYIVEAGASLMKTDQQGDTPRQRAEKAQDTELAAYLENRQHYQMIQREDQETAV
Sequence of hDGKalpha(1-735)-N-His (P23743 whole entry): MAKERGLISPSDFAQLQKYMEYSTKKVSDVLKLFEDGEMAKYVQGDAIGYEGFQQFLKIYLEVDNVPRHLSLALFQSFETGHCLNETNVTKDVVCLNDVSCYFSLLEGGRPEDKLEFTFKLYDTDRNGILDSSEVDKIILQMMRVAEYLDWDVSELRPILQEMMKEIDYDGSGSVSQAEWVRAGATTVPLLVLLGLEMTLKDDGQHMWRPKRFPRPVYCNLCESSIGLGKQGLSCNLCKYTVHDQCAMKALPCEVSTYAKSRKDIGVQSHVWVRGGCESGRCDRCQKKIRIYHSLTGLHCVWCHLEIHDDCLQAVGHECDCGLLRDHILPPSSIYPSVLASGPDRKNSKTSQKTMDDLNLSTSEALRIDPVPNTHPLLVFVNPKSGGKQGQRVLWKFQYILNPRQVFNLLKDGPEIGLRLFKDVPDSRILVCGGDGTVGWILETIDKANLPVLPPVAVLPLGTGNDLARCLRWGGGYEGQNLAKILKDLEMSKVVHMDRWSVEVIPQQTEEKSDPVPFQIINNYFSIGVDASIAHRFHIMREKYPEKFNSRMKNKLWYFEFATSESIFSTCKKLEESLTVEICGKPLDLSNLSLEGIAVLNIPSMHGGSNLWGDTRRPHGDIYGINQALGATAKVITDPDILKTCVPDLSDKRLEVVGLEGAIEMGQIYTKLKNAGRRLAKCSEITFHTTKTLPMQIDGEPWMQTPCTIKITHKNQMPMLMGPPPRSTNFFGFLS

IC50 (hDGKalpha(1-735)-N-His) | IC50 (hDGKzeta(1-928)-N-His) | EC50 (primary human T-cells [2]) | SMILES | Emax proliferation (% activation) (primary human T-cells [1]) | EC50 (primary human T-cells [1]) | Emax (MV-3 cells; Homo sapiens, MV-3, 120 h, normalized: MCSP-TCB only = neutral control, 20 μM reference compound A1 = 100%, read-out: MSCP TCB killing MV-3 cells 5 d Emax) | EC50 (MV-3 cells) | MSCP TCB killing MV-3 cells 5 d Emax (MV-3 cells; normalized: MCSP-TCB only = neutral control, 20 μM reference compound A1 = 100%) | Emax (primary human T-cells [1]; Homo sapiens, T-cell, 120 h) | EC50 (primary human T-cells [1]; Homo sapiens, T-cell, 120 h)
403 nM | 114 nM | 3000 nM | CC(C)(C)c1nc(-c2cc3c(cc2F)S(=O)(=O)C[C@H](N)C(=O)N3Cc2ccc(F)cc2)no1 [Example 357, (3R)-3-amino-7-(5-tert-butyl-1,2,4-oxadiazol-3-yl)-8-fluoro-5-[(4-fluorophenyl)methyl]-1,1-dioxo-2,3-dihydro-1λ^6,5-benzothiazepin-4-one] | – | – | – | – | – | 386% | 1140 nM
42700 nM | 1300 nM | 2090 nM | Cc1cc(S(C)(=O)=O)ccc1-c1nnc(-c2ccc3c(c2)N(Cc2ccc(Cl)cc2)C(=O)[C@@H](N)CS3(=O)=O)o1 [Example 379, (3R)-3-amino-5-[(4-chlorophenyl)methyl]-7-[5-(2-methyl-4-methylsulfonyl-phenyl)-1,3,4-oxadiazol-2-yl]-1,1-dioxo-2,3-dihydro-1λ^6,5-benzothiazepin-4-one] | – | – | – | – | – | 69% | 4850 nM
38500 nM | 2630 nM | > 10000 nM | Cc1ccc(-c2nnc(-c3ccc4c(c3)N(Cc3ccc(Cl)cc3)C(=O)[C@@H](N)CS4(=O)=O)o2)cn1 [Example 390, (3R)-3-amino-5-[(4-chlorophenyl)methyl]-7-[5-(6-methyl-3-pyridyl)-1,3,4-oxadiazol-2-yl]-1,1-dioxo-2,3-dihydro-1λ^6,5-benzothiazepin-4-one] | – | – | – | – | – | 69% | 4510 nM
3000 nM | 338 nM | 783 nM | N[C@H]1CS(=O)(=O)c2cc(F)c(-c3noc(C4(CO)CCCO4)n3)cc2N(Cc2ccc(Oc3ccccc3)cc2)C1=O (stereo partly drawn) [Example 521, (3R)-3-amino-8-fluoro-7-[5-[2-(hydroxymethyl)tetrahydrofuran-2-yl]-1,2,4-oxadiazol-3-yl]-1,1-dioxo-5-[(4-phenoxyphenyl)methyl]-2,3-dihydro-1λ^6,5-benzothiazepin-4-one] | – | – | – | – | – | 189% | 622 nM
4070 nM | 529 nM | 619 nM | CN1CCCC(F)(c2nc(-c3cc4c(cc3F)S(=O)(=O)C[C@H](N)C(=O)N4Cc3ccc(Oc4ccccc4)cc3)no2)C1 (stereo partly drawn) [Example 522, (3R)-3-amino-8-fluoro-7-[5-(3-fluoro-1-methyl-3-piperidyl)-1,2,4-oxadiazol-3-yl]-1,1-dioxo-5-[(4-phenoxyphenyl)methyl]-2,3-dihydro-1λ^6,5-benzothiazepin-4-one] | – | – | – | – | – | 161% | 782 nM
1290 nM | 1510 nM | 5280 nM | CC(C)(C)c1nnc(-c2cc3c(cc2Cl)S(=O)(=O)C[C@H](N)C(=O)N3Cc2ccc(Cl)cc2)o1 [Example 523, (3R)-3-amino-7-(5-tert-butyl-1,3,4-oxadiazol-2-yl)-8-chloro-5-[(4-chlorophenyl)methyl]-1,1-dioxo-2,3-dihydro-1λ^6,5-benzothiazepin-4-one] | – | – | – | – | – | 45% | 462 nM

Continued, compound first:

SMILES | IC50 (hDGKalpha(1-735)-N-His) | IC50 (hDGKzeta(1-928)-N-His) | EC50 (primary human T-cells [2]) | Emax proliferation (% activation) (primary human T-cells [1]) | EC50 (primary human T-cells [1]) | Emax (MV-3 cells; Homo sapiens, MV-3, 120 h, normalized: MCSP-TCB only = neutral control, 20 μM reference compound A1 = 100%, read-out: MSCP TCB killing MV-3 cells 5 d Emax) | EC50 (MV-3 cells) | MSCP TCB killing MV-3 cells 5 d Emax (MV-3 cells; normalized: MCSP-TCB only = neutral control, 20 μM reference compound A1 = 100%) | Emax (primary human T-cells [1]; Homo sapiens, T-cell, 120 h) | EC50 (primary human T-cells [1]; Homo sapiens, T-cell, 120 h)
CC(C)(C)c1nnc(-c2cc3c(cc2F)S(=N)(=O)C[C@H](N)C(=O)N3Cc2ccc(OC(F)(F)F)cc2)o1 (single isomer, unassigned) [Example 517] | 272 nM | 316 nM | 299 nM | 90 % activation | 2930 nM | 79% | 330 nM | – | – | –
CC(C)(C)c1nnc(-c2cc3c(cc2F)S(=N)(=O)C[C@H](N)C(=O)N3Cc2ccc(OC(F)(F)F)cc2)o1 (single isomer, unassigned) [Example 518] | 442 nM | 639 nM | 135 nM | 58 % activation | 9070 nM | – | 960 nM | 78% | – | –
CC(C)(C)c1nc(-c2cc3c(cc2F)S(=O)(=O)C[C@H](N)C(=O)N3Cc2ccc(OC3CCCC3)cc2)no1 [Example 350, (3R)-3-amino-7-(5-tert-butyl-1,2,4-oxadiazol-3-yl)-5-[[4-(cyclopentoxy)phenyl]methyl]-8-fluoro-1,1-dioxo-2,3-dihydro-1λ^6,5-benzothiazepin-4-one] | 1610 nM | 235 nM | 312 nM | – | – | – | – | – | 256% | 208 nM
N[C@H]1CS(=O)(=O)c2ccc(-c3nnc(C4CCCC(F)(F)C4)o3)cc2N(Cc2ccc(Cl)cc2)C1=O (stereo partly drawn) [Example 373, (3R)-3-amino-5-[(4-chlorophenyl)methyl]-7-[5-(3,3-difluorocyclohexyl)-1,3,4-oxadiazol-2-yl]-1,1-dioxo-2,3-dihydro-1λ^6,5-benzothiazepin-4-one] | 1400 nM | 644 nM | 1160 nM | – | – | – | – | – | 100% | 556 nM
COCCN1CCCC(F)(c2nnc(-c3ccc4c(c3)N(Cc3ccc(Cl)cc3)C(=O)[C@@H](N)CS4(=O)=O)o2)C1 (stereo partly drawn) [Example 386, (3R)-3-amino-5-[(4-chlorophenyl)methyl]-7-[5-[3-fluoro-1-(2-methoxyethyl)-3-piperidyl]-1,3,4-oxadiazol-2-yl]-1,1-dioxo-2,3-dihydro-1λ^6,5-benzothiazepin-4-one] | 3570 nM | 778 nM | 4870 nM | – | – | – | – | – | 108% | 2270 nM
N[C@H]1CS(=O)(=O)c2ccc(-c3nnc(N4[C@@H]5CC[C@H]4COC5)o3)cc2N(Cc2ccc(Cl)cc2)C1=O [Example 407, (3R)-3-amino-5-[(4-chlorophenyl)methyl]-7-[5-[(1R,5S)-3-oxa-8-azabicyclo[3.2.1]octan-8-yl]-1,3,4-oxadiazol-2-yl]-1,1-dioxo-2,3-dihydro-1λ^6,5-benzothiazepin-4-one] | 1420 nM | 2660 nM | > 10000 nM | – | – | – | – | – | 96% | 2810 nM
CC(C)(C)c1nnc(-c2ccc3c(c2)N(Cc2ccc(Oc4ccccc4)cc2)C(=O)[C@@H](N)CS3(=O)=O)o1 [Example 438, (3R)-3-amino-7-(5-tert-butyl-1,3,4-oxadiazol-2-yl)-1,1-dioxo-5-[(4-phenoxyphenyl)methyl]-2,3-dihydro-1λ^6,5-benzothiazepin-4-one] | 797 nM | 1340 nM | 700 nM | – | – | – | – | – | 78% | 246 nM
CC(C)(C)c1nnc(-c2ccc3c(c2)N(Cc2ccc(OC(F)(F)C(F)F)cc2)C(=O)[C@@H](N)CS3(=O)=O)o1 [Example 442, (3R)-3-amino-7-(5-tert-butyl-1,3,4-oxadiazol-2-yl)-1,1-dioxo-5-[[4-(1,1,2,2-tetrafluoroethoxy)phenyl]methyl]-2,3-dihydro-1λ^6,5-benzothiazepin-4-one] | 1390 nM | 285 nM | 148 nM | – | – | – | – | – | 134% | 240 nM
COC(=O)N1CCC(c2nnc(-c3ccc4c(c3)N(Cc3ccc(OC5CCCC5)cc3)C(=O)[C@@H](N)CS4(=O)=O)o2)C1 (stereo partly drawn) [Example 444, methyl 3-[5-[(3R)-3-amino-5-[[4-(cyclopentoxy)phenyl]methyl]-1,1,4-trioxo-2,3-dihydro-1λ^6,5-benzothiazepin-7-yl]-1,3,4-oxadiazol-2-yl]pyrrolidine-1-carboxylate] | 6110 nM | 1910 nM | > 10000 nM | – | – | – | – | – | 99% | 2370 nM
